In ChEMBL document CHEMBL5331107 (J Med Chem, 2023):

Tests used:
[1] = Metabolic stability in human plasma assessed as compound hydrolysis incubated for 120 mins by LC-MS/MS analysis; format: ADME, cell-free; details: 2 h
[2] = Metabolic stability in human plasma assessed as half-life incubated for 120 mins by LC-MS/MS analysis; format: ADME, cell-free
hERG = hERG (Homo sapiens, UniProt Q12809); assay: Inhibition of hERG expressed in CHO cells at 0.1 uM at -80 mV holding potential by manual patch-clamp electrophysiology method relative to control; format: toxicity, cell-based; details: CHO cells expressing hERG
hERG, sequence (Q12809 whole entry): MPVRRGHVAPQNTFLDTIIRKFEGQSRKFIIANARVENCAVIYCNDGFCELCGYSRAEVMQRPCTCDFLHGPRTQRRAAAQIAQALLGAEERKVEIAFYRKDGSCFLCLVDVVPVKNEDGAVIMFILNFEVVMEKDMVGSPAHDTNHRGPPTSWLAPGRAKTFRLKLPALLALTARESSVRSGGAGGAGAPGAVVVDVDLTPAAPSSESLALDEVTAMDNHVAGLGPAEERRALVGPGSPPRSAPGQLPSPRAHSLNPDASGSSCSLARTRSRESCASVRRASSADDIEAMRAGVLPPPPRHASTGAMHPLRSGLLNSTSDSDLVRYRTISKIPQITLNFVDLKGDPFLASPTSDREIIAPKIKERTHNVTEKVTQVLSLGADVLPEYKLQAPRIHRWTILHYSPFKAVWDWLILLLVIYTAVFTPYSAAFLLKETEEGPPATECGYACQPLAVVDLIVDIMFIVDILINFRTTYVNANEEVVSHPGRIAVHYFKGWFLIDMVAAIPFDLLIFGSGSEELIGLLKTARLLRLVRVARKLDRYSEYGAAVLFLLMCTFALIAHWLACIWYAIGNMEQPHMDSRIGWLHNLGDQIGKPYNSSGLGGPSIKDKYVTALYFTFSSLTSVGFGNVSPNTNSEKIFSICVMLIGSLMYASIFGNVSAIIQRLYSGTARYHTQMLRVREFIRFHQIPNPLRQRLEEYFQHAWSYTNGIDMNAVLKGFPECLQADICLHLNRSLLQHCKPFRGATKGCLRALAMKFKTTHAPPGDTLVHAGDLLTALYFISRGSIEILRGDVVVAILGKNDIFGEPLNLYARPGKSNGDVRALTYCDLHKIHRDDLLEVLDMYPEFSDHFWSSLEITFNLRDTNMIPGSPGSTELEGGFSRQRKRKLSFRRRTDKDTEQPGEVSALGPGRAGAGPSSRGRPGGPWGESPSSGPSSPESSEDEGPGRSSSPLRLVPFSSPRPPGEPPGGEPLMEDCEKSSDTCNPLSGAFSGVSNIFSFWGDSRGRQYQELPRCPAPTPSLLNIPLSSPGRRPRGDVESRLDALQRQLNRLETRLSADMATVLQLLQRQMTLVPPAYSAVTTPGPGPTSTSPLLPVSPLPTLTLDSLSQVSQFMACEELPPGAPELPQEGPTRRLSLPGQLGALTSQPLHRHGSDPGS

[3] = Metabolic stability in human plasma assessed as compound remaining incubated for 120 mins by LC-MS/MS analysis; format: ADME, cell-free; details: read-out: Stability
[4] = Acute toxicity in Kunming mouse assessed as tolerance at 1000 mg/kg, IG administered as single dose and measured after 7 days; format: organism-based; details: in vivo, po, 168 h, time 7 day
[5] = AUC(0 to infinity) in Sprague-Dawley rat at 2 mg/kg, iv measured at 5 to 600 min by LC-MS/MS analysis; format: ADME, organism-based; design: time 5-600 min, dose 2 mg/kg, route iv; details: in vivo
[6] = Subacute toxicity in Kunming mouse assessed as histopathological change in liver at 50 mg/kg, IG administered via gavage every other day and measured after 14 days by H&E staining based analysis; format: organism-based; details: in vivo, po, 336 h, time 14 day
[7] = AUC(0 to last) in Sprague-Dawley rat at 2 mg/kg, iv measured at 5 to 600 min by LC-MS/MS analysis; format: ADME, organism-based; design: dose 2 mg/kg, time upper 600 min, time lower 5 min, route iv; details: in vivo
[8] = tested on: Human immunodeficiency virus 1; format: functional, organism-based; details: Human immunodeficiency virus 1, MT4, 120 h
[9] = Metabolic stability in human liver assessed as intrinsic clearance incubated for 60 mins in the presence of NADPH by LC-MS/MS analysis; format: ADME, tissue-based; details: read-out: CLH
[10] = Subacute toxicity in Kunming mouse assessed as animal death at 50 mg/kg, IG administered via gavage every other day and measured after 14 days; format: organism-based; details: in vivo, po, 336 h, time 14 day
[11] = Subacute toxicity in Kunming mouse assessed as histopathological change in heart at 50 mg/kg, IG administered via gavage every other day and measured after 14 days by H&E staining based analysis; format: organism-based; details: in vivo, po, 336 h, time 14 day
[12] = MRT (0 to infinity) in Sprague-Dawley rat at 2 mg/kg, iv measured at 5 to 600 min by LC-MS/MS analysis; format: ADME, organism-based; details: in vivo, time 5-600 min
[13] = tested on: Human immunodeficiency virus 1; assay: microbe, parasite or virus in culture; details: Human immunodeficiency virus 1, IIIB, MT4, 120 h
Description: Antiviral activity against wild type HIV-1 IIIB infected in human MT4 cells assessed as protection against virus-induced cytopathic effect incubated for 5 days by MTT assay

[14] = Subacute toxicity in Kunming mouse assessed as lethargy at 50 mg/kg, IG administered via gavage every other day and measured after 14 days; format: organism-based; details: in vivo, po, 336 h, time 14 day
[15] = tested on: Human immunodeficiency virus 1; assay: Antiviral activity against NNRTI-resistant HIV-1 harboring F227L and V106A double mutant infected in human MT4 cells assessed as protection against virus-induced cytopathic effect incubated for 5 days by MTT assay; format: functional, organism-based; details: Human immunodeficiency virus 1, MT4, 120 h
[16] = MRT (0 to infinity) in Sprague-Dawley rat at 10 mg/kg, po measured at 15 to 720 min by LC-MS/MS analysis; format: ADME, organism-based; details: in vivo, time 15-720 min
[17] = Subacute toxicity in Kunming mouse assessed as alopecia at 50 mg/kg, IG administered via gavage every other day and measured after 14 days; format: organism-based; details: in vivo, po, 336 h, time 14 day
[18] = Subacute toxicity in Kunming mouse assessed as dyspnoea at 50 mg/kg, IG administered via gavage every other day and measured after 14 days; format: organism-based; details: in vivo, po, 336 h, time 14 day
[19] = biological target: Human immunodeficiency virus type 1 reverse transcriptase (Human immunodeficiency virus 1, UniProt Q72547); assay: Inhibition of HIV-1 reverse transcriptase assessed as assessed as reduction of biotin-dUTP incorporation into […] incubated for 1 hrs by ELISA analysis
[20] = tested on: Human immunodeficiency virus 1; assay: Antiviral activity against NNRTI-resistant HIV-1 harboring K103N mutant infected in human MT4 cells assessed as protection against virus-induced cytopathic effect incubated for 5 days by MTT assay; format: functional, organism-based; details: Human immunodeficiency virus 1, MT4, 120 h
[21] = Subacute toxicity in Kunming mouse assessed as histopathological change in kidney at 50 mg/kg, IG administered via gavage every other day and measured after 14 days by H&E staining based analysis; format: organism-based; details: in vivo, po, 336 h, time 14 day
[22] = AUC (0 to infinity) in Sprague-Dawley rat at 10 mg/kg, po measured at 15 to 720 min by LC-MS/MS analysis; format: ADME, organism-based; design: dose 10 mg/kg, time upper 720 min, time lower 15 min, route po; details: in vivo
[23] = Acute toxicity in Kunming mouse assessed as effect on body weight at 1000 mg/kg, IG administered as single dose and measured after 7 days; format: organism-based; details: in vivo, po, 168 h, time 7 day
[24] = Subacute toxicity in Kunming mouse assessed as effect on body weight at 50 mg/kg, IG administered via gavage every other day and measured after 14 days; format: organism-based; details: in vivo, po, 336 h, time 14 day
[25] = Subacute toxicity in Kunming mouse assessed as histopathological change in spleen at 50 mg/kg, IG administered via gavage every other day and measured after 14 days by H&E staining based analysis; format: organism-based; details: in vivo, po, 336 h, time 14 day
[26] = Clearance in Sprague-Dawley rat at 2 mg/kg, iv measured at 5 to 600 min by LC-MS/MS analysis; format: ADME, organism-based; details: in vivo, time 5-600 min
[27] = tested on: Human immunodeficiency virus 1; assay: Antiviral activity against NNRTI-resistant HIV-1 harboring E138K mutant infected in human MT4 cells assessed as protection against virus-induced cytopathic effect incubated for 5 days by MTT assay; format: functional, organism-based; details: Human immunodeficiency virus 1, MT4, 120 h
[28] = tested on: Human immunodeficiency virus 1; assay: Antiviral activity against NNRTI-resistant HIV-1 harboring L100I mutant infected in human MT4 cells assessed as protection against virus-induced cytopathic effect incubated for 5 days by MTT assay; format: functional, organism-based; details: Human immunodeficiency virus 1, MT4, 120 h
[29] = Acute toxicity in Kunming mouse assessed as effect on alopecia at 1000 mg/kg, IG administered as single dose and measured after 7 days; format: organism-based; details: in vivo, po, 168 h, time 7 day
[30] = Subacute toxicity in Kunming mouse assessed as at 50 mg/kg, po administered every other day and measured after 14 days; format: organism-based; details: in vivo, 336 h, time 14 day
[31] = Acute toxicity in Kunming mouse assessed as effect on animal death at 1000 mg/kg, IG administered as single dose and measured after 7 days; format: organism-based; details: in vivo, po, 168 h, time 7 day
[32] = Metabolic stability in human liver microsomes assessed as half-life incubated for 60 mins in the presence of NADPH by LC-MS/MS analysis; format: ADME, Microsome; details: liver microsomes
[33] = Metabolic stability in human liver microsomes assessed as intrinsic clearance incubated for 60 mins in the presence of NADPH by LC-MS/MS analysis; details: liver microsomes
[34] = Subacute toxicity in Kunming mouse assessed as histopathological change in lung at 50 mg/kg, IG administered via gavage every other day and measured after 14 days by H&E staining based analysis; format: organism-based; details: in vivo, po, 336 h, time 14 day
[35] = Tmax in Sprague-Dawley rat at 10 mg/kg, po measured at 15 to 720 min by LC-MS/MS analysis; format: ADME, organism-based; details: in vivo, time 15-720 min
[36] = Acute toxicity in Kunming mouse assessed as effect on anorexia at 1000 mg/kg, IG administered as single dose and measured after 7 days; format: organism-based; details: in vivo, po, 168 h, time 7 day
[37] = AUC (0 to last) in Sprague-Dawley rat at 10 mg/kg, po measured at 15 to 720 min by LC-MS/MS analysis; format: ADME, organism-based; design: time upper 720 min, time lower 15 min, dose 10 mg/kg, route po; details: in vivo
[38] = Volume of distribution in Sprague-Dawley rat at 2 mg/kg, iv measured at 5 to 600 min by LC-MS/MS analysis; format: ADME, organism-based; details: in vivo, time 5-600 min
[39] = Half-life in Sprague-Dawley rat at 2 mg/kg, iv measured at 5 to 600 min by LC-MS/MS analysis; format: ADME, organism-based; details: in vivo, time 5-600 min
[40] = Acute toxicity in Kunming mouse assessed as effect on dyspnea at 1000 mg/kg, IG administered as single dose and measured after 7 days; format: organism-based; details: in vivo, po, 168 h, time 7 day
[41] = Subacute toxicity in Kunming mouse assessed as anorexia at 50 mg/kg, IG administered via gavage every other day and measured after 14 days; format: organism-based; details: in vivo, po, 336 h, time 14 day
[42] = Cytotoxicity against human MT4 cells assessed as reduction in cell viability incubated for 5 days by MTT assay; format: toxicity, cell-based; details: time 5 day
[43] = tested on: Human immunodeficiency virus 1; format: functional, organism-based; details: Human immunodeficiency virus 1, MT4, 120 h; remark: listed apart in the source
[44] = tested on: Human immunodeficiency virus 1; format: functional, organism-based; details: Human immunodeficiency virus 1, MT4, 120 h; remark: listed apart in the source
[45] = Metabolic stability in human liver microsomes assessed as compound remaining measured after 60 mins in the presence of NADPH by LC-MS/MS analysis; format: ADME, Microsome; details: liver microsomes, read-out: Stability
[46] = Half-life in Sprague-Dawley rat at 10 mg/kg, po measured at 15 to 720 min by LC-MS/MS analysis; format: ADME, organism-based; details: in vivo, time 15-720 min
[47] = Cmax in Sprague-Dawley rat at 10 mg/kg, po measured at 15 to 720 min by LC-MS/MS analysis; format: ADME, organism-based; design: dose 10 mg/kg, time 15-720 min, route po; details: in vivo
[48] = Acute toxicity in Kunming mouse upto 1000 mg/kg, IG administered as single dose and measured after 7 days; format: organism-based; details: in vivo, po, 168 h, time 7 day
[49] = Acute toxicity in Kunming mouse assessed as effect on lethargy at 1000 mg/kg, IG administered as single dose and measured after 7 days; format: organism-based; details: in vivo, po, 168 h, time 7 day
[50] = MRT (0 to last) in Sprague-Dawley rat at 2 mg/kg, iv measured at 5 to 600 min by LC-MS/MS analysis; format: ADME, organism-based; details: in vivo, time 5-600 min

CC(C)[N+](C)(CCOC(=O)C1c2ccccc2Oc2ccccc21)C(C)C.[Br-] [PROPANTHELINE BROMIDE]
Stability [1]: Unstable
half-life [2]: 10 min

COc1cc(N)c(Cl)cc1C(=O)NC1CCN(CCCOc2ccc(F)cc2)CC1OC (configuration not stated) [CISAPRIDE]
inhibition at 0.1 µM (hERG): 64%

CCC(=O)N1CCc2nc(Nc3ccc(C#N)cc3)nc(Oc3c(C)cc(C#N)cc3C)c2C1
remaining at 2 h [3]: 97.1%
Activity [4]: Non-Toxic
AUC(0-inf) [5]: 1740 ng·h/mL
Activity [6]: Non-Toxic
AUC(0-t) [7]: 1730 ng·h/mL
EC50 [8]: 0.0149 µM
CLint scaled [9]: 125 mL/min/kg
Activity [10]: Non-Toxic
Activity [11]: Non-Toxic
MRT inf [12]: 39.8 min
EC50 [13]: 0.00271 µM
Activity [14]: Non-Toxic
EC50 [15]: 0.0388 µM
MRT inf [16]: 214 min
Activity [17]: Non-Toxic
Activity [18]: Non-Toxic
IC50 [19]: 0.07 µM
EC50 [20]: 0.00188 µM
Activity [21]: Non-Toxic
AUC(0-inf) [22]: 23.4 ng·h/mL
Activity [23]: Non-Toxic
Activity [24]: Non-Toxic
Activity [25]: Non-Toxic
clearance [26]: 19.4 mL/min/kg
EC50 [27]: 0.011 µM
EC50 [28]: 0.0146 µM
Activity [29]: Non-Toxic
Activity [30]: Non-Toxic
Activity [31]: Non-Toxic
half-life [32]: 10 min
microsomal CLint at 1 h [33]: 138 µL/min/mg
Activity [34]: Non-Toxic
Tmax [35]: 30 min
Activity [36]: Non-Toxic
AUC(0-t) [37]: 16 ng·h/mL
Vd [38]: 0.771 L/kg
half-life [39]: 56.5 min
Activity [40]: Non-Toxic
Activity [41]: Non-Toxic
CC50 at 120 h [42]: 10.8 µM
half-life [2]: > 289 min
EC50 [43]: 0.031 µM
EC50 [44]: 0.0109 µM
remaining at 1 h [45]: 1.6%
half-life [46]: 142 min
Cmax [47]: 7.71 ng/mL
Activity [48]: Non-Toxic
Activity [49]: Non-Toxic
MRT last [50]: 38.9 min
